Reference: patent US20210270815A1, “SPERM FERTILITY CAPACITY TEST AND SPERM DECAPACITATING SUPPLEMENT” (priority 2018, published 2021)
Residues, ends and D or L forms follow the SMILES beside them. *: point of attachment. Cbz = O=C(OCc1ccccc1)*

Key:
[1] = tested on: boar spermatozoa; experiment: Zinc signature (FZ3, image-based flow cytometry) of boar spermatozoa after 4 hours of in vitro capacitation (IVC); format: cell-based, Sus scrofa
Source text: Fresh boar spermatozoa were capacitated using a protocol that rendered them capable of recognizing and binding to ZP, as well as undergoing acrosomal exocytosis and penetrating the oocyte ZP^11. IVC-induced protein tyrosine phosphorylation changes are shown in FIG. 3; acrosomal status and plasma membrane changes are shown in FIG. 4A and FIG. 4B. Briefly, spermatozoa were washed of seminal plasma once with noncapacitating media (NCM), a modified TL-HEPES medium, free of calcium dichloride (CaCl2) and addition of 11 mM D-glucose, with pH adjusted to 7.2. Spermatozoa were then resuspended in 0.5 mL in vitro capacitation (IVC) media, TL-HEPES-PVA supplemented with 5 mM sodium pyruvate, 11 mM D-glucose, 2 mM CaCl2, 2 mM sodium bicarbonate, and 2% (m/v) bovine serum albumin, and incubated in a 37° C. water bath for 4 hours, with sperm rotation performed every 60 minutes. Control incubations under non-IVC conditions used NCM. Proteasome inhibitors (100 μM MG-132 and 10 μM Epox/CLBL/MG-132) were mixed with IVC media prior to sperm pellet resuspension. 100 μM M MG-132 and ‘100 μM’ vehicle contained 0.5% (v/v) DMSO. 10 μM Epox/CLBL/MG-132 and ‘10 μM’ vehicle contained 0.3% (v/v) DMSO. PVA (polyvinyl alcohol) helped to reduce sperm aggregation and spermatozoa were pipetted repeatedly to dissociate sperm aggregates in a satisfactory manner prior to IBFC data acquisition. To confirm normal capacitation in the experimental IVC media, compared to 15 mM sodium bicarbonate IVC media, normal hyperactivation status was recorded and tyrosine phosphorylation status was normal (FIG. 3). Unlike murine or rodent sperm tyrosine phosphorylation, porcine tyrosine phosphorylation is much more modest, with less prominent changes during the course of capacitation. Therefore new bands after capacitation appear only at the molar weights of 32 kDa (acrosin binding protein), and 21 kDa protein (phospholipid hydroperoxide glutathione peroxidase). […] Final acrosome and plasma membrane modification status is similar at end of IVC regardless of the two IVC treatment conditions; however, the rate of change and cell death is faster in 15 mM sodium bicarbonate containing medium than experimental IVC medium (FIGS. 4A and 4B).
(§1) Upon 4 hours of IVC, sample size of 100 μL (4 million spermatozoa) were incubated 30 minutes with 1:200 H33342, 1:200 PI, and 1:100 FZ3 for epifluorescence microscopy. Lower probe concentrations were necessary for IBFC due to camera detection differences, thus 1:1000, 1:1000, and 1:500 were used, respectively, with inclusion of 1:1000 PNA-AF647. For Fluo-4 calcium probe, we followed manufacturer protocol using identical cell concentrations.
IBFC data acquisition was performed following previous methodology^56. Specifically, using a FlowSight flow cytometer (FS) fitted with a 20× microscope objective (numerical aperture of 0.9) with an imaging rate up to 2000 events per sec. The sheath fluid was PBS (without Ca^2+ or Mg^2+). The flow-core diameter and speed was 10 μm and 66 mm per sec, respectively. Raw image data were acquired using INSPIRE® software. To produce the highest resolution, the camera setting was at 1.0 μm per pixel of the charged-coupled device. In INSPIRE® FS data acquisition software, two brightfield channels were collected (channels 1 & 9), one FZ3 image (channel 2), one PI image (channel 5), one side scatter (SSC; channel 6), one H33342 (channel 7), and one PNA-AF647 image (channel 11), with a minimum of 10,000 spermatozoa collected. The following lasers and power settings were used: 405 nm (to excite H33342): 10 mW; 488 nm (to excite FZ3): 60 mW; 561 nm (to excite PI): 40 mW, 642 nm (to excite PNA-AF647): 25 mW; and 785 nM SSC laser: 10 mW.
Data were analyzed using IDEAS® analysis software from AMNIS EMD Millipore. Gating approach used standard focus and single cell gating calculations created by IDEAS software (FIG. 2A, left and middle panels). […]

[2] = tested on: boar spermatozoa; experiment: TPEN Zn chelation of spermatozoa, FZ3 zinc probe and Fluo-4 calcium probe fluorescence; format: cell-based, Sus scrofa; conditions: 10 μM, 40 million sperm per mL, 1 hour
Method: Zn^2+ chelation was performed using TPEN (membrane permeable). 10 μM TPEN was incubated with 40 million sperm per mL for 1 hour. Stock TPEN: 1 mM in 1:100 EtOH:H2O.
as §1
IBFC data acquisition was performed following previous methodology^56. […]
Data were analyzed using IDEAS® analysis software from AMNIS EMD Millipore. […] Events in focus were further gated to analyze only a single spermatozoa by plotting H33342 fluorescence area by aspect ratio (FIG. 2A, middle panel). […] Such mask was created by taking a morphology mask of the brightfield (FIG. 2B, first column), subtracting a 4-pixel dilation of H33342 (FIG. 2B, second column), resulting in a mask to analyze fluorescence in the tail region only (FIG. 2B, third and fourth columns). […] This combined gating and masking strategy shown in FIG. 2C provided robust clean data, ready for signature analysis by plotting FZ3 intensity of this masked region, which is impossible with traditional flow cytometry. […]

[3] = 100 μM in IVC media, 4 hours 37° C., pre-sperm rich fraction, mean±s.e.m., 3 biological replicates, 10,000 cells

[Cl-].[Cl-].[Zn+2] [ZnCl2, zinc chloride]
Zinc signature after IVC with exogenous zinc ([1]; 1 mM added to IVC medium): retained signature 1

c1ccc(CN(CCN(Cc2ccccn2)Cc2ccccn2)Cc2ccccn2)nc1 [TPEN, N,N,N′,N′-Tetrakis(2-pyridinylmethyl)-1,2-ethanediamine]
FZ3 fluorescence / zinc signature after Zn chelation, compared to vehicle [2]: removed a majority of FZ3 fluorescence to signature 3 and 4 states
Fluo-4 calcium probe intensity compared to vehicle [2]: did not reduce Fluo-4 calcium probe intensity

CC(C)C[C@@H](C=O)NC(=O)[C@H](CC(C)C)NC(=O)[C@H](CC(C)C)NC(=O)OCc1ccccc1 [MG132] (Cbz-Leu-Leu-Leu-aldehyde)
Signature 1 (portion of spermatozoa with zinc signature 1) [1, 3]: 30.8% ± 13.1%^B
Signature 2 (portion of spermatozoa with zinc signature 2) [1, 3]: 32.9% ± 19.5%
Signature 3 (portion of spermatozoa with zinc signature 3) [1, 3]: 31.0% ± 4.9%^B
Signature 4 (portion of spermatozoa with zinc signature 4) [1, 3]: 5.4% ± 4.9%^AB
Retention of zinc signature 1 during IVC as compared to IVC+vehicle ([1]; added to IVC conditions, pre-sperm rich fraction, P=0.0271 (signatures 1 & 2 combined P=0.0008)): significantly higher portion of spermatozoa retained signature 1
